Assay results from US8440420B2, “Assessment of cardiac health and thrombotic risk in a patient” (priority 2005, dated 2013).
Where two headings read alike, the source gives them in different places. Where a SMILES comes first, the peptide text is derived from it. Bridges are numbered along the chain shown (N, C = ends). [ ]: non-standard residue; d: D form. hArg = N=C(N)NCCCC[C@H](N)C(=O)O; Mpa = O=C(O)CCS

Assays:
[1] = system: platelets (ADP-induced aggregation); settings: cited from earlier work
[2] = system: myocardial necrosis markers (troponin I, CKMB, myoglobin); assay: Myocardial necrosis markers and infarction after elective stenting (Example 2); assay type: in vivo, patients; settings: for large infarcts: CK-MB>5×ULN in at least 2 samples; for criteria met for a myocardial infarction: CK-MB>3× ULN in at least 2 samples
Description: Patients were randomly assigned to one of four treatment regimens by a computer generated assignment that was chosen from a sealed envelope by the study personnel: […] […] Unfractionated heparin was administered according to the ESPRIT dosing regimen (60 U/kg) as a bolus to all patients in the catheterization laboratory immediately prior to stenting. Cardiac markers were measured at the same times as the platelet assays. The peak levels of troponin I, creatinine kinase MB (CKMB), and myoglobin were determined using the Triage® Cardiac Panel with a Triage® Meter (Biosite Inc., San Diego, Calif.). This method is based on a fluorescence immunoassay for the quantitative determination of these cardiac markers.

[3] = system: platelets (ADP-induced aggregation); assay: ADP-induced platelet aggregation by light transmittance aggregometry after coronary stenting (Example 2); assay type: in vivo, patients
Description: Patients were randomly assigned to one of four treatment regimens by a computer generated assignment that was chosen from a sealed envelope by the study personnel: […] […] Unfractionated heparin was administered according to the ESPRIT dosing regimen (60 U/kg) as a bolus to all patients in the catheterization laboratory immediately prior to stenting. […] The blood-citrate tubes were centrifuged at 120 g for 5 minutes to recover platelet rich plasma (PRP) and further centrifuged at 850 g for 10 minutes to recover platelet poor plasma (PPP). The platelet count was determined in the PRP sample and adjusted to 3.0×10^8/ml with homologous platelet poor plasma. The PRP and PPP were stored at room temperature to be used within two hours. Platelet aggregation was assessed as described previously. […] Aggregation was expressed as the maximum percent change in light transmittance from baseline, using PPP as a reference.

p-selectin = settings: stimulated; 18-24 hours post-stenting; 300 mg clopidogrel alone
Description: The surface expression of platelet receptors was determined by whole blood flow cytometry using three-color analysis method (Immunocytometry Systems, Cytometry Source Book, Becton Dickinson) with the following monoclonal antibodies: FITCconjugated PAC-1. (recognizes activated GP IIb/IIIa receptors), R-Phycoerythrin (R-PE)-conjugated CD41a (recognizes total GP IIb/IIIa receptors), and CY-Chrome™ conjugated CD62P (recognizes p-selectin). All three antibodies were purchased from BD Biosciences, San Diego, Calif. The blood-citrate mixture was stimulated with 5 μM ADP for 2 minutes. Saturating concentrations of respective antibodies were then added and the tubes were incubated at room temperature for 20 minutes in the dark. […] The labeled samples were analyzed by a Becton Dickinson FACScan flow cytometer set up to measure fluorescence light scatter. The instrument was calibrated with fluorescence beads for the three-color flow cytometer setup (CaliBRITE™3, BD Biosciences). […] The data were collected in list mode and then analyzed using CELL Quest Software (BD BioSciences). P-selectin was expressed as percent positive cells (i.e. the ratio of CD62P (CY-Chrome™) verses CD41a (R-PE) positive cells) as previously described. Activated GP IIb/IIIa was expressed as log mean fluorescence intensity.

[4] = system: activated GP IIb/IIIa receptors; assay: Whole blood flow cytometry, stimulated active GP IIb/IIIa expression (Example 2); assay type: in vivo, patients; settings: 18-24 hours post-stenting, 5 μM ADP stimulated
Description: (recognizes activated GP IIb/IIIa receptors), R-Phycoerythrin (R-PE)-conjugated CD41a (recognizes total GP IIb/IIIa receptors), and CY-Chrome™ conjugated CD62P (recognizes p-selectin). […] The blood-citrate mixture was stimulated with 5 μM ADP for 2 minutes.
The definition of an infarct was CK-MB>3× upper limits normal (ULN) in at least 2 samples and a large infarct was defined as CK-MB>5×ULN in at least 2 samples.10,13 Bleeding was quantified according to the TIMI criteria.16 In brief, major bleeding was defined as clinically overt bleeding accompanied by a fall in hemoglobin of […] or a fall in hematocrit of 9 to <15%.

[5] = system: platelets (ADP-induced aggregation); settings: resistance = >75th percentile of group without SAT, 75 mg maintenance dose
Description: Cases of stent thrombosis (n=30) were identified by searching the medical records of patients who underwent coronary stenting in the last 1.5 years at the Sinai Hospital of Baltimore and Union Memorial Hospital, Baltimore, Md. […] Stent thrombosis was defined by the sudden onset of coronary artery occlusion in a stented vessel resulting in hospitalization and judged by the treating interventionalist as due to thrombosis. Platelet reactivity in patients with stent thrombosis (SAT) was compared to a group of patients without SAT. In patients without SAT, platelet studies were performed 5-14 days post-procedure and these patients were enrolled consecutively (n=100). […]
Platelet aggregation was determined by conventional light transmittance aggregometry in response to 5 and 20 μM ADP (adenosine diphosphate); and 1.0 mM arachidonic acid using standard methods as previously described. […] The platelet count was determined in the PRPR sample and adjusted to 2-3×10^8/ml with homologous PPP. Platelets in PRP were stimulated with a final concentration of 5 and 20 μM ADP (Chronolog, Haverton, Pa.), and percent aggregation was assessed as previously described using a Chronolog Lumi aggregometer (Model 490A) with the Aggro-Link software package (Gurbel et al. J Am Coll Cardiol 1998 89:783). […]

[6] = Group A, 300 mg clopidogrel; hematoma
Description: Relative platelet inhibition was defined for purposes of this study as follows: (baseline aggregation minus posttreatment aggregation)/baseline aggregation×100%.14 Mean platelet reactivity was calculated as the average platelet aggregation recorded at 3, 8 and 18-24 hours poststenting. […] The definition of an infarct was CK-MB>3× upper limits normal (ULN) in at least 2 samples and a large infarct was defined as CK-MB>5×ULN in at least 2 samples.10,13 Bleeding was quantified according to the TIMI criteria.16 In brief, major bleeding was defined as clinically overt bleeding accompanied by a fall in hemoglobin of 3.0-5.0 g/dl or a fall in hematocrit of 9 to <15%. Major bleeding occurred when the hemoglobin decreased >5 g/dl or the hematocrit ≧15%.

[7] = system: platelets (arachidonic acid-induced aggregation); settings: Gum et al. study; ADP and 1.6 mM arachidonic acid; cited from earlier work
[8] = system: platelets (arachidonic acid-induced aggregation); assay: Aspirin resistance by arachidonic acid-induced aggregation, LTA (Example 1); assay type: in vivo; settings: 1.0 mM arachidonic acid; 1/70 patients; aspirin 81-325 mg qd
Text: J Am Coll Cardiol 1998 89:783).

Compound: N=C(N)NCCCC[C@@H]1NC(=O)CCSSC[C@@H](C(N)=O)NC(=O)[C@@H]2CCCN2C(=O)[C@H](Cc2c[nH]c3ccccc23)NC(=O)[C@H](CC(=O)O)NC(=O)CNC1=O [eptifibatide] ([Mpa][hArg]GDWPC-NH2; disulfide 1-7)
- inhibition (of aggregation) ([1]; other studies): > 80%
- large infarcts ([2]; either group that received eptifibatide (Groups C, D)): no large infarcts
- CKMB release (>1-3×ULN), overall ([2]; groups treated with eptifibatide vs clopidogrel alone): lowest
- mean platelet reactivity ([3]; 5 μM ADP, average of 3, 8 and 18-24 hours post-stenting, eptifibatide use): lowest mean platelet reactivity

Compound: COC(=O)[C@H](c1ccccc1Cl)N1CCc2sccc2C1 [clopidogrel]
- inhibition of baseline aggregation ([1]; 300 mg loading dose, 5 and 20 μM ADP, 24 hours after administration): < 40%
- effect in p-selectin expression (p-selectin): least effect
- ST-elevation myocardial infarction in-hospital following a subacute thrombosis ([2]; Group A, 300 mg clopidogrel): one
- criteria met for a myocardial infarction ([2]; Group A, 300 mg clopidogrel): 3 patients
- large infarcts ([2]; Group A, 300 mg clopidogrel): 2
- criteria met for a myocardial infarction ([2]; Group B, 600 mg clopidogrel): 1 patients
- large infarcts ([2]; Group B, 600 mg clopidogrel): 1
- time of peak inhibitory effect ([3]; 5 μM ADP, 300 mg clopidogrel loading dose): 18 to 24 h
- time of peak inhibitory effect ([3]; 5 μM ADP, 600 mg clopidogrel loading dose): 8 h
- platelet inhibition, 600 mg vs 300 mg loading dose ([3]; 5 μM ADP, 600 mg loading dose, no eptifibatide, first 24 hours after stenting): greater platelet inhibition
- mean platelet reactivity vs 600 mg clopidogrel alone ([3]; 5 μM ADP, average of 3, 8 and 18-24 hours post-stenting, 300 mg clopidogrel alone): higher mean platelet reactivity
- time of peak inhibitory effect ([3]; 20 μM ADP, 300 mg clopidogrel loading dose): 8 h
- time of peak inhibitory effect ([3]; 20 μM ADP, 600 mg clopidogrel loading dose): 8 h
- inhibition of stimulated expression of active GP IIb/IIIa ([4]; 300 mg clopidogrel loading dose (Groups A, C)): 50±20%
- inhibition of stimulated expression of active GP IIb/IIIa ([4]; 600 mg clopidogrel loading dose (Groups B, D)): 63±7%
- estimated incidence of clopidogrel resistance ([5]; 5 μM ADP-induced aggregation): 65%
- estimated incidence of clopidogrel resistance ([5]; 20 μM ADP-induced aggregation): 60%
- minor bleeding [6]: one

Compound: CC(=O)Oc1ccccc1C(=O)O [aspirin]
- patients meeting the criteria for aspirin resistance [7]: 5.5%
- patients meeting the criteria for aspirin resistance [8]: 1.5%
